# Results reported in the METLIN SMRT retention time set (Domingo-Almenara et al. 2019).
# Test: gradient 5% acetonitrile 3 min, to 50% in 2 min, to 85% in 15 min, held 3 min, 100 µL/min
# Details: column: Zorbax Extend-C18 2.1 x 50 mm; eluents: water / acetonitrile, 0.1% formic acid
# Outline: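 Pure standards were run in mixtures of ~100 molecules by HPLC coupled to a quadrupole time-of-flight mass spectrometer. The column was a Zorbax Extend-C18 (2.1 × 50 mm, 1.8 μm) at 100 μL/min, with water and acetonitrile each containing 0.1% formic acid, in positive and negative ionization mode. Dead and dwell volumes were 40 μL and 900 μL. Retention time was taken from computationally picked adduct peaks, each manually inspected, with data collected over 3 months.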
row,RP-LC retention time [s],Compound
1,584,CCOC(=O)C1CCC(CNC(=O)Nc2ccc3nc(N4CCN(C)CC4)cc(C)c3c2)CC1 (centres undefined)
2,1030,CC(C)Cn1c(=O)c2ccccc2n(Cc2nc(-c3cccc(C(F)(F)F)c3)no2)c1=O
3,932,O=C(Nc1c(F)cccc1F)N1CCc2nc(-c3ccc(F)cc3)ncc2C1
4,1200,COc1ccc(-c2cc(C(=O)Nc3cc(F)cc(F)c3)sn2)cc1
5,1060,COc1cccc(-c2cc(C(=O)NCCC3=CCCCC3)n(C)n2)c1
6,888,Cc1ccc(NC(=O)Cn2c(=O)n(-c3ccc(F)cc3)c(=O)c3c2cc(C)n3C)cc1C
7,599,CC(=O)Nc1ccc(S(=O)(=O)NCc2nc(C)no2)cc1
8,664,Cn1c(CCNC(=O)c2cccc(C(F)(F)F)c2)nc2cccnc21
9,671,O=C(Nc1ccc(F)cc1F)c1ccc(N2C(=O)CCC2=O)cc1
10,776,CCn1c(N2CCCC(C(=O)NCc3ccc(F)cc3)C2)cc(=O)n(C)c1=O (centres undefined)
11,642,Fc1cccc(-c2nc(-c3ccc4c(c3)ncn4CCN3CCOCC3)no2)c1
12,731,CCCS(=O)(=O)N1CCc2ccc(NC(=O)c3cccn(C)c3=O)cc2C1
13,702,Cc1cc2c(N3CCCC(C(=O)NCc4ccc(Br)cc4)C3)nccc2s1 (centres undefined)
14,637,CN(C)C(=O)c1ccc2c(c1)nc(CN(C)C(=O)Nc1ccc(Br)cc1F)n2C
15,931,CCN1C(=O)c2cccnc2Sc2cc(NC(=O)COc3cccc(C)c3)ccc21
16,659,CNC(=O)c1cc(-c2ccc(F)cc2)n[nH]1
17,888,Cc1ccc(C(=O)N2CCC(COc3ccc(C(=O)NC(C)C)cc3)CC2)s1
18,1080,CCOc1ccc(-c2noc(CN3C(=O)COc4cc(Cl)ccc43)n2)cc1OC

row,RP-LC retention time [s],Compound
1,746,CC(C)c1nnc(NC(=O)C2CC(=O)N(CCc3c[nH]c4ccc(F)cc34)C2)s1 (centres undefined)
2,783,Cc1ccc(Cn2c(N3CCC(C(=O)NC4CC4)CC3)nc3ccsc3c2=O)cc1
3,1080,Cc1nc(CC(=O)Nc2nc(-c3ccc(OC(C)C)cc3)cs2)cs1
4,866,Cc1ccc(NC(=O)Cn2nc(C)cc2C(=O)Nc2ccc3c(c2)OCO3)cc1
5,1060,COc1ccc(N2CCN(c3cc(SCC(=O)Nc4ccc(F)c(Cl)c4)ncn3)CC2)cc1
6,830,COc1ccc(NC(=O)Cn2nc3cc(C)nc(-c4ccccc4)n3c2=O)c(OC)c1
7,774,COc1ccc(Br)c(C(=O)Nc2nnc(Cc3ccc(F)cc3)o2)c1
8,896,COc1ccc(C)cc1NC(=O)Cn1nc2c(Oc3ccccc3C)nccn2c1=O
9,983,CN(CCc1noc(-c2ccc(F)cc2)n1)C(=O)Nc1ccccc1Cl
10,779,CCN(CC)C(=O)c1ccc2c(c1)nnn2CCNC(=O)Nc1ccc(Br)cc1
11,651,CCC(=O)N1N=C(c2cccc(NS(=O)(=O)CC)c2)CC1c1cccc([N+](=O)[O-])c1 (centres undefined)
12,716,CCN1CCn2cc(S(=O)(=O)Nc3ccc(OC)cc3C)cc2C1=O
13,818,Cn1c(=O)sc2cc(S(=O)(=O)N3CCC(C(=O)NCc4ccc(F)cc4)CC3)ccc21
14,899,Cn1c(=O)n(C)c2cc(S(=O)(=O)c3ccc(F)cc3)c(NC(=O)c3ccc(F)cc3)cc21
15,1030,CC1(C(=O)NCc2ccc(F)cc2)CCCN(C(=O)Nc2ccc(Br)cc2F)C1 (centres undefined)
16,1040,COc1ccc(C(=O)Nc2nc(-c3ccccc3)cs2)cc1
17,1130,Cc1ccc(NC(=O)C2(c3ccc4c(c3)OC(F)(F)O4)CC2)nc1-c1cccc(C(=O)O)c1
18,675,CC(C)(C)NC(=O)CN1CCC(c2nc(-c3ccc(F)cc3)no2)CC1

# Further lines, the molecule ahead of its results:
row,Compound,RP-LC retention time [s]
1,Cc1cc(C)c(C(=O)N2CCC(CC(=O)NCCCN3CCCC3)CC2)[nH]1,586
2,CCN1C(=O)C2CC3(CCN(C(=O)Nc4ccc5c(c4)OCCO5)CC3)CN2C1=O (centres undefined),706
3,CCOc1ccccc1C(=O)N1CCC2(CC1)N=C(c1cccc(Br)c1)NO2,951
4,Cc1ccc(NC(=O)N2CCN(c3cc(C)nc(N4CCOCC4)n3)CC2)c(C)c1,666
5,Cc1ccc(Cn2cc(-c3ccncc3)cc2C(=O)NCC2CC2)cc1,705
6,O=S(=O)(c1cccs1)N1CCc2nc(-c3ccc(Cl)cc3)ncc2C1,1150
7,CCCN1C(=O)COc2cc(-c3noc(C(=O)NC4CCCC4)n3)ccc21,977
8,COCCCn1cc(C(=O)N2CCCC2)c2nn(-c3ccccc3)c(=O)c-2c1,647
9,COc1ccc(NC(=O)N2CCCC(CN3CCc4ccccc4C3)C2)cc1OC (centres undefined),628
10,CC(=O)c1ccc(S(=O)(=O)N2CCC(CN3CCCC(C)C3)CC2)cc1 (centres undefined),634
11,CCOc1ccc(-c2nc(C3CC(=O)N(c4ccc(F)cc4)C3)no2)cc1 (centres undefined),1010
12,CN1CC[C@@]23CCCC[C@@H]2[C@@H]1Cc1ccc(O)cc13,644
13,Cc1ccc(C(=O)N2CC(n3cc(COc4ccc(F)cc4)nn3)C2)c(=O)[nH]1,655
14,CCOC(=O)c1[nH]c(C)c(CN(Cc2ccco2)C(=O)Cc2ccccc2)c1C,977
15,Cc1cc(NS(=O)(=O)c2ccc(F)cc2C)n(C2CCS(=O)(=O)C2)n1 (centres undefined),753
16,O=C(NCCn1c(=O)n(Cc2ccccc2)c2cccnc21)C1CCCC1,760
17,Cc1ccc(-c2ncccc2CNS(=O)(=O)c2ccc(C#N)cc2)cc1,688
18,O=C(CSc1ncnc2nc[nH]c12)Nc1ccccc1C(F)(F)F,618
19,CCOc1ccc(-c2nc3ncccn3c2NC2CCCCC2)cc1,808
20,Cc1[nH]c(=O)[nH]c(=O)c1CCC(=O)N1CCC(c2nc3ccccc3o2)CC1,600
21,CCOc1ccc(C(=O)N2C[C@H](c3nc(-c4ccncc4)no3)[C@@H](C)C2)cc1,838
22,COc1ccc(C(=O)N(CCS(=O)(=O)N2CCNCC2)CC2CCCO2)cc1 (centres undefined),609
23,CCCN(C(=O)c1ccccc1OC)c1nc(-c2ccccc2)cs1,1310
24,O=C(Cc1ccsc1)NC1CCc2nnc(C3CC3)n2CC1 (centres undefined),594
25,COc1ccc(-c2cn3c(CC(=O)Nc4ccccc4)csc3n2)cc1,760
26,Cc1ccc(NC(=O)NC2CCN(c3ccc(C)cc3)C2=O)cc1 (centres undefined),853
27,COc1ccc(NC(=O)c2cn(-c3cc(N4CCCC(C)C4)ncn3)cn2)c(OC)c1 (centres undefined),1170

row,Compound,RP-LC retention time [s]
1,N#Cc1ccc(C(=O)Nc2cccnc2N2CCCC2)cc1,583
2,CCCn1cc(C(=O)NCCN2CCCC2)c2cccnc21,589
3,CCOC(=O)C1CCN(C(=O)c2nc3ccccn3c2-c2ccsc2)CC1,664
4,O=C1CC(c2nc(-c3ccccc3)no2)CN1c1ccc2c(c1)OCCO2 (centres undefined),933
5,O=C(CSc1ncc(CO)n1Cc1ccc(F)cc1)N1CCCc2ccccc21,702
6,CCOC(=O)C1CCN(C(=O)C2CCCN(c3nc4cccnc4n(CC)c3=O)C2)CC1 (centres undefined),969
7,CCC1(CC=C2CCCCC2)C(=O)NC(=O)NC1=O,863
8,Cc1ccc2c(c1)-c1onc(C(=O)N3CCN(c4ccccn4)CC3)c1CO2,747
9,O=C1CCc2cc(NS(=O)(=O)/C=C/c3ccccc3)ccc2N1,681
10,Cn1cnc(S(=O)(=O)N2CCC(C(=O)NC3CCCc4ccccc43)CC2)c1 (centres undefined),728
11,Cc1ccc(NC(=O)N2CCC(n3cnc4c(C)cccc4c3=O)CC2)cc1,801
12,O=C1NC2(CCN(C(=O)NCc3ccccc3)CC2)Oc2ccccc21,963
13,Cc1noc(-c2cccc(OC3CN(C(=O)NCc4ccccc4)C3)c2)n1,830
14,Cc1ccccc1-c1nc2cnccn2c1NCCC(=O)NCc1ccccc1,669
15,Cc1cc(OCC(O)Cn2c(C3CC(=O)N(C(C)(C)C)C3)nc3ccccc32)cc(C)c1Cl (centres undefined),878
16,O=C(Cc1ccsc1)N1CCC(Nc2ncnc3c2CCC3)C1 (centres undefined),588
17,Cc1cc(NC(=O)CSc2cc(-c3ccccc3)ncn2)no1,780
18,Cc1noc(C2CN(C(=O)Nc3ccccc3Cl)CC23CCOCC3)n1 (centres undefined),732
19,O=C(Nc1cccc([N+](=O)[O-])c1)C1(c2cccs2)CCOCC1,558
20,O=[N+]([O-])c1c(NCCO)cc(N2CCN(c3ccccn3)CC2)c2nonc12,579
21,COC(=O)c1scc(C)c1NC(=O)C(C)NC(C)C (centres undefined),618
22,CCc1nc2onc(C)c2c(=O)n1CC(=O)NC1CCCc2ccccc21 (centres undefined),892
23,Cc1cccc(NS(=O)(=O)c2c(C)sc(C)c2-c2n[nH]c(C)c2C)c1,1040
24,O=C(CCNc1c(-c2ccccc2)nc2cnccn12)NCc1cccc(F)c1,698
25,CC1CCN(C(=O)c2cc(S(=O)(=O)N(C)CC(=O)NC(C)C)cn2C)CC1,723
26,CSc1ccc(-c2noc(Cn3c(=O)n(-c4cccc(F)c4)c(=O)c4sccc43)n2)cc1,1040
